Source: the supplement of paper PMC5908809

What was measured:
Assay in all cases: relative IC50 (inflection point of fitted viability curve, relative to fitted max inhibition); higher = less sensitive
Settings in all cases: 72 h
KAI3 (IL-2 2.5 ng/mL) = tested on: KAI3 (IL-2 2.5 ng/mL)
Procedure: (§1)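 Drug sensitivity and resistance testing: 5 concentrations over a 10,000-fold range, 72 h at 37 °C, viability by CellTiter-Glo normalised to DMSO and benzethonium chloride controls. IC50 is the inflection point of a logistic fit (min fixed at 0, max fitted), so it is relative to the fitted maximal inhibition. Kept only where fitted max inhibition is at least 50%.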

[1] = tested on: normal primary NK cells, pool 1 (3 donors), resting (IL-2 0 ng/mL)
Procedure: as §1

YT (IL-2 2.5 ng/mL) = tested on: YT (IL-2 2.5 ng/mL)
Procedure: as §1

DERL-7 (IL-2 2.5 ng/mL) = tested on: DERL-7 (IL-2 2.5 ng/mL)
Procedure: as §1

IMC-1 (IL-2 20 ng/mL) = tested on: IMC-1 (IL-2 20 ng/mL)
Procedure: as §1

KHYG-1 (IL-2 2.5 ng/mL) = tested on: KHYG-1 (IL-2 2.5 ng/mL)
Procedure: as §1

NK-92 (IL-2 2.5 ng/mL) = tested on: NK-92 (IL-2 2.5 ng/mL)
Procedure: as §1

NK-YS (IL-2 2.5 ng/mL) = tested on: NK-YS (IL-2 2.5 ng/mL)
Procedure: as §1

NKL (IL-2 2.5 ng/mL) = tested on: NKL (IL-2 2.5 ng/mL)
Procedure: as §1

SNK-6 (IL-2 2.5 ng/mL) = tested on: SNK-6 (IL-2 2.5 ng/mL)
Procedure: as §1

[2] = tested on: normal primary NK cells, pool 2 (3 donors) (IL-2 2.5 ng/mL)
Procedure: as §1

[3] = tested on: normal primary NK cells, pool 1 (3 donors) (IL-2 2.5 ng/mL)
Procedure: as §1

[4] = tested on: normal primary NK cells, pool 3 (3 donors) (IL-2 2.5 ng/mL)
Procedure: as §1

Structure (SMILES)	relative IC50 (KAI3 (IL-2 2.5 ng/mL))	relative IC50 [1]	relative IC50 (YT (IL-2 2.5 ng/mL))	relative IC50 (DERL-7 (IL-2 2.5 ng/mL))	relative IC50 (IMC-1 (IL-2 20 ng/mL))	relative IC50 (KHYG-1 (IL-2 2.5 ng/mL))	relative IC50 (NK-92 (IL-2 2.5 ng/mL))	relative IC50 (NK-YS (IL-2 2.5 ng/mL))	relative IC50 (NKL (IL-2 2.5 ng/mL))	relative IC50 (SNK-6 (IL-2 2.5 ng/mL))	relative IC50 [2]	relative IC50 [3]	relative IC50 [4]
CC(C)N(CCCNC(=O)Nc1ccc(C(C)(C)C)cc1)C[C@H]1O[C@@H](n2cc(Br)c3c(N)ncnc32)[C@H](O)[C@@H]1O [SGC0946]	2540 nM	3660 nM											
CC[C@H](CO)Nc1nc(NCc2ccccc2)c2ncn(C(C)C)c2n1 [Seliciclib]	2380 nM		1850 nM										
COc1ccc(S(=O)(=O)Nc2cccnc2Nc2ccc(O)cc2)cc1 [ABT-751]	243 nM		207 nM	294 nM	283 nM	196 nM	122 nM	135 nM	381 nM	76.1 nM			
COc1cc2nccc(Oc3ccc(NC(=O)NC4CC4)c(Cl)c3)c2cc1C(N)=O [Lenvatinib]										> 2500 nM	> 2500 nM		
Cc1ccc(NC(=O)c2ccc(CN3CCN(C)CC3)cc2)cc1Nc1nccc(-c2cccnc2)n1 [Imatinib]	3230 nM	1980 nM	2740 nM	2190 nM	3400 nM	3080 nM	2230 nM	2920 nM	3600 nM	4290 nM		1650 nM	
CON(C)C(=O)N1N=C(c2cc(F)ccc2F)S[C@@]1(CCCN)c1ccccc1 [ARRY-520]		> 1000 nM	22.9 nM	3.14 nM		3.25 nM	10.2 nM	3.86 nM	5.25 nM	2.57 nM			
Nc1nc(NC2CC2)cc(-c2cccc(Cl)c2Cl)n1 [TH588]	1730 nM		2120 nM	7900 nM	6380 nM	2050 nM	1550 nM	854 nM	2180 nM	809 nM			
Cc1cc(Nc2ncc(Cl)c(Nc3ccccc3S(=O)(=O)C(C)C)n2)c(OC(C)C)cc1C1CCNCC1 [Ceritinib]		464 nM			> 2500 nM			> 2500 nM	> 2500 nM			616 nM	
CNC(=O)c1cc(Oc2ccc(NC(=O)Nc3ccc(Cl)c(C(F)(F)F)c3)cc2)ccn1 [Sorafenib]					> 1000 nM				> 1000 nM		> 1000 nM	> 1000 nM	> 1000 nM
NC(=O)c1cccc2cn(-c3ccc([C@@H]4CCCNC4)cc3)nc12 [Niraparib]	1580 nM			2170 nM	1800 nM	2230 nM	1920 nM	1490 nM	219 nM	3140 nM			
O=C1c2c(O)ccc(O)c2C(=O)c2c(NCCNCCO)ccc(NCCNCCO)c21 [Mitoxantrone]	91 nM	151 nM		80.5 nM	170 nM	158 nM		114 nM	32.2 nM	34.8 nM	185 nM	322 nM	
Cc1cn(-c2cc(NC(=O)c3ccc(C)c(Nc4nccc(-c5cccnc5)n4)c3)cc(C(F)(F)F)c2)cn1 [Nilotinib]									869 nM				> 10000 nM
CN1CCN(CCOc2cc(OC3CCOCC3)c3c(Nc4c(Cl)ccc5c4OCO5)ncnc3c2)CC1 [Saracatinib]	2110 nM	1620 nM	1200 nM	1590 nM	3200 nM	3140 nM	1590 nM	2260 nM					
CCNC(=O)CCC/C=C\C[C@@H]1[C@@H](/C=C/[C@@H](O)CCc2ccccc2)[C@H](O)C[C@@H]1O [Bimatoprost]	> 5500 nM		> 5500 nM	> 5500 nM	> 5500 nM	> 5500 nM	> 5500 nM	> 5500 nM			> 5500 nM		> 5500 nM
COc1cc2nccc(Oc3ccc(NC(=O)C4(C(=O)Nc5ccc(F)cc5)CC4)cc3)c2cc1OC [Cabozantinib]												> 1000 nM	
CC(C)(C)Cn1c(N)nc2ccc(-c3[nH]c(C(C)(C)C)nc3-c3ccc(F)cc3)nc21 [Ralimetinib]		4000 nM	2220 nM		> 10000 nM		1960 nM		1600 nM			3570 nM	
CS(=O)(=O)N1CCc2c(-c3cnc(N)nc3)nc(N3CCOCC3)nc21	384 nM		1290 nM	1000 nM			316 nM	940 nM	451 nM				
CO[C@H]1C[C@@H]2CC[C@@H](C)[C@@](O)(O2)C(=O)C(=O)N2CCCC[C@H]2C(=O)O[C@H]([C@H](C)C[C@@H]2CC[C@@H](O)[C@H](OC)C2)CC(=O)[C@H](C)/C=C(\C)[C@@H](O)[C@@H](OC)C(=O)[C@H](C)C[C@H](C)/C=C/C=C/C=C/1C [Sirolimus]	2.41 nM			5 nM		6.55 nM		1.01 nM	0.3 nM	0.8 nM			
c1ccc([C@H]2CN3CCSC3=N2)cc1 [Levamisole]	> 10000 nM		> 10000 nM			> 10000 nM	> 10000 nM	> 10000 nM			> 10000 nM		> 10000 nM
COc1ccc(-c2ccc3c(N4CCOC[C@@H]4C)nc(N4CCOC[C@@H]4C)nc3n2)cc1CO [AZD8055]	10.3 nM		55.6 nM	21.7 nM		135 nM	121 nM	77.3 nM	5.08 nM	16.3 nM			
CN(C[C@@H]1COCCO1)S(=O)(=O)Nc1ccc2ccc3ncc(-c4cnn(C)c4)cc3c(=O)c2c1 [MK-2461]				1770 nM									> 10000 nM
Nc1cccc2c1C(=O)N(C1CCC(=O)NC1=O)C2=O (stereo unspecified) [Pomalidomide]	> 10000 nM	> 10000 nM	> 10000 nM		> 10000 nM	> 10000 nM	> 10000 nM	> 10000 nM					
N.N.[Cl][Pt][Cl] [Cisplatin]					515 nM						14800 nM		15600 nM
Cc1c(NC(=O)OC[C@@H]2COCCN2)cn2ncnc(Nc3ccc4c(cnn4Cc4cccc(F)c4)c3)c12	3180 nM	3970 nM		2730 nM		2230 nM	2400 nM		3110 nM		3090 nM		
CCn1nnc2c(N3CCOCC3)nc(-c3ccc(NC(=O)Nc4ccc(C(=O)N5CCN(C)CC5)cc4)cc3)nc21 [PKI-402]	90.9 nM		208 nM	89.1 nM		316 nM	428 nM	154 nM	97.1 nM	210 nM			
CC(C)C(=O)Nc1ccc([N+](=O)[O-])c(C(F)(F)F)c1 [Flutamide]	> 10000 nM					> 10000 nM						> 10000 nM	
CC[C@@H]1C(=O)N(C)c2cnc(Nc3ccc(C(=O)N[C@H]4CC[C@H](N5CCN(CC6CC6)CC5)CC4)cc3OC)nc2N1C(C)C [Volasertib]	26.5 nM		29 nM	19.6 nM	30 nM	28.3 nM	12.6 nM	24.3 nM	36.2 nM	6.44 nM			
Clc1ccccc1C(c1ccccc1)(c1ccccc1)n1cccn1 [TRAM-34]		> 1000 nM											
COc1ccccc1S(=O)(=O)Nc1ccc2c(c1)CN(C)C(=O)N2 [PFI-1]			2310 nM	1080 nM	2970 nM	1640 nM		1310 nM	1080 nM		1780 nM		
